One block for each molecule: values may come before it.
What was measured:
[1] = cited from earlier work
[2] = rat, cited from earlier work
[3] = comparative storage test in aqueous rotigotine solution with/without α-cyclodextrin; type: physicochemical; conditions: solution of 1.6 mg/ml with α-cyclodextrin, storage at 60° C. for 8 weeks
Excerpt: The stabilizing effect of α-cyclodextrin becomes also apparent from a comparative test in an aqueous rotigotine solution.

[4] = in-vitro permeation assay through nasal mucosa; type: in vitro ADME, cattle
Excerpt: The intranasal formulation according to the present invention may preferably further contain a viscosity-enhancing substance. Glycerol and carboxymethylcellulose (CMC) are particularly useful as viscosity enhancers, but the present invention is not limited thereto. Glycerol is particularly preferred as it also has a soothing effect on the nasal mucosa. The viscosity of the intranasal formulations of the present invention should preferably be between 0.8 and 1.5 mm^2/s, most preferably around 1.2 mm^2/s. The viscosity can be determined by an Ubbelohde capillary viscosimeter with suspending ball-level for the determination of kinematic viscosity according to DIN 51562, part 1.
The pH-value of the formulation of the present invention should preferably in the range of 4.5 to 6.5, more preferably around 5.8±0.3. […] The pH value of the intranasal formulation can be adjusted during or after its preparation with a pharmaceutically acceptable acid or base. Most preferably, citric acid is used for this purpose.

[5] = (maximum) solubility in aqueous solution with α- or β-cyclodextrin, isocratic HPLC; type: physicochemical; conditions: aqueous solution and aqueous solutions containing α- or β-cyclodextrin
Method: The concentration was determined by isocratic HPLC analysis. HPLC column LiChroCART 75×4 mm, Superspher 60 RP-select B 5 μm (Merck), column temperature: 30° C., mobile phase: water/acetonitrile/methane sulfonic acid (65/35/0.05 v/v/v), flow rate: 2 mL/min, injection volume: 50 μl, detection at 220 nm, retention time approx. 1.5 min. The concentration was determined by use of an external reference solution with known concentration.

[6] = tested on: cilia; conditions: cited from earlier work

Molecule: CN1CCc2cccc3c2[C@H]1Cc1ccc(O)c(O)c1-3 [apomorphine]
oxidation in solution [1]: subject to rapid oxidation

decrease in the rotigotine concentration [3]: -0.07 mg/mL | rotigotine uptake through nasal mucosa ([4]; formulation pH 4.5): significantly lower rotigotine uptake | drug uptake through nasal mucosa ([4]; formulation pH 5.8): optimal drug uptake | rotigotine uptake through nasal mucosa ([4]; formulation pH 6.5): significantly lower rotigotine uptake | uptake of rotigotine through the nasal mucosa ([4]; glycerol in the formulation): increase the uptake | solubility (in words) [5]: practically insoluble
Molecule: CCCN(CCc1cccs1)[C@H]1CCc2c(O)cccc2C1 [Rotigotine base, 5,6,7,8-tetrahydro-6-[propyl-[2-(2-thienyl)ethyl]amino]-1-naphthalenol]
bioavailability ([2]; buccal, nasal or rectal administration compared with oral dosing, solution in 1:1 PEG 400 and water): improved bioavailability | bioavailability for the nasal dosing ([2]; compared with results described for other lipophilic drugs): somewhat disappointing

Molecule: benzalkonium chloride
ciliary toxicity [6]: significant ciliary toxicity
